Assay results reported in article PMC7440915, “Discovery of surrogate agonists for visceral fat Treg cells that modulate metabolic indices in vivo” (eLife, 2020).
Where no end group is shown, it is not given here.

Assays:
[1] = system: vTreg53 TCR (transduced Jurkat T cells); assay: CD69/CD25 up-regulation on vTreg53 TCR transduced Jurkat T cells with peptide-pulsed K562-A^b cells; type: cell-based, Homo sapiens (cells); murine TCR; conditions: for CD25 Emax, fold increase over Fat15: CD25, peptide titration, Figure 3E; for CD69 Emax, fold increase over Fat15: CD69, peptide titration, Figure 3D; for EC50: peptide titration, CD69 (Figure 3D), overnight, mean ± SD from n = 2 biological replicates, 1 representative of 3 experiments
Description: (§1) Figure 3. Identification of robust vTreg53 TCR agonists. Single-point mutants based on the Fat7 (A) or Fat15 (B) peptides were used to stimulate Fat-TCR transduced Jurkat T cells. Data shown are mean fluorescence intensity for CD69 up-regulation following overnight stimulation with the indicated peptides at 100 µM. (C) Potent SPs based on Fat15. Single-residue mutations from the Fat15 are shown in red. Anchor positions are shown in grey and potential TCR-facing positions are shown in green. A peptide titration of single- and double-point mutants from the Fat15 SP show up to ~4- (D; CD69) or ~8 fold (E; CD25) increase in Emax. (F) Surface plasmon resonance for Fat7, Fat15, Fat1562 and Fat2564 was used to determine the pMHC/Fat TCR affinity. All biotinylated pMHC were purified by SEC and immobilized in a streptavidin-coated SPR sensor chip from 200 up to 600 RU. Data are mean ± SD from n = 2 (A, D, E) or 3 (B) biological replicates from 1 representative of 3 independent experiments. Data shown in (F) is representative of 2 independent experiments. Figure 3—figure supplement 1. In vitro peptide stimulation of the vTreg53 TCR cells. (A) Expression of wild-type Ab MHC in stably transduced K562 cells. (B) Expression of vTreg53 TCR in stably transduced Jurkat T cells (TCRαβ-/-). (C) Fraction of CD25+/CD69+ cells following overnight stimulation with Fat mimotopes at the indicated concentrations. (D) Peptide-A^b - streptavidin PE (pAb -SAPE) titration of vTreg53 transduced Jurkat T cells. Cells were stained with 250 nM of pA^b-SAPE tetramer for 1 hr.
Cell lines were kept in a humidified incubator at 37°C with 5% CO2 unless otherwise denoted. Jurkat T cells (derived from acute T cell leukemia ATCC TIB-152) and K562 cells (ATCC CCL-243) were cultured in RPMI supplemented with 2 mM glutamax (Invitrogen), 10% FBS (Sigma),10 mM HEPES pH 8.0 (ThermoFisher), 1 mM Sodium Pyruvate (Gibco) and 50 U/ml penicillin and streptomycin (ThermoFisher). Validation of T cell lines was performed by staining with known markers pre- and post- transfection or transduction. HEK293T (Lenti-X; Takara Bio USA, #632180) cells (female derived kidney cell line) were grown in DMEM complete media (ThermoFisher) supplemented with 10% FBS, 2 mM L-glutamine, and 50 U/ml of penicillin and streptomycin. Cells were tested for mycoplasma contamination using the MycoAlert Mycoplasma Detection kit (Lonza) and found to be mycoplasma-negative. For peptide assays, Jurkat T cells were rested overnight or for 2–3 hr in fresh RPMI complete. Cells were co-cultured for 16 to 48 hr with surrogate APCs: K562 transduced with A^b. After overnight incubation, cells were washed in MACS buffer and stained with anti-TCR, A^b, CD69 and CD25. EBY100 yeast cells were cultured in sterile filtered standard YPD (Bacto Peptone, glucose and yeast extract). Transformed yeast were grown in SDCAA (yeast nitrogen base, casamino acids -ADE, -URA, -TRP, D-glucose and buffered to pH 4.5 using sodium citrate and citric acid monohydrate) and induced in SGCAA where galactose replaces D-glucose. EBY100 cells are grown at 30°C when cultured in SDCAA, or at 20°C when cultured in SGCAA at atmospheric CO2 in an orbital shaker set to an agitation speed of 250 rpm.

vTreg53 (Fat) TCR = assay: Surface plasmon resonance, pMHC/Fat TCR affinity; type: binding, murine; conditions: 25°C; for Kd: Biacore T100, biotinylated pMHC immobilized on SA chip 200 to 600 RU, HBS-P+, equilibrium, representative of 2 experiments
Description: as §1
High Five cells (Tni; Expression Systems) were grown in Insect X-press media (Lonza) or ESF 921 media (Expression Systems) with a final concentration of 10 mg/L of gentamicin sulfate (ThermoFisher) at 27°C at atmospheric CO2. SF9 cells are grown in SF900-III or -II serum-free media (ThermoFisher) with 10% FBS and final concentration 10 mg/L of gentamicin sulfate and 2 mM glutamax at 27°C at atmospheric CO2. P1 or P2 virus was used to infect volumes of 1–3 L of Hi5 cells at ∼2 × 10^6 cells/ml. Supernatant was harvested 2–3 days post-infection and spun down at 8000 rpm for 15 min. The supernatant containing expressed protein was treated to 100 mM Tris pH 8.0, 1 mM NiCl2, and 5 mM CaCl2 to precipitate contaminants. The supernatant and precipitate mixture was spun down at 8000 rpm for 20 min at 4°C to remove precipitate. The supernatant was incubated with Ni-NTA resin (QIAGEN) for >3 hr at room temperature. Ni-NTA beads were collected and washed in a Buchner funnel with 20 mM imidazole in 1 x HBS pH 7.2 and eluted with 200 mM imidazole in 1x HBS pH 7.2. Protein was concentrated in a 10 kDa filter (Millipore, UFC903024) to ~1 mL. When appropriate, protein was biotinylated with BirA ligase, 100 μM biotin, 40 mM Bicine pH 8.3, 10 mM ATP, and 10 mM Magnesium Acetate at 4°C overnight. All proteins were further purified by size-exclusion chromatography using Superdex Increase S200 or S75, as appropriate (GE Healthcare). All proteins for in vivo studies were cleared of endotoxin. Final endotoxin levels were determined using a chromogenic endotoxin quantitation kit (Thermo Fisher) and never greater than 1 Endotoxin Unit/mg of purified protein.
A GE Biacore T100 was used to measure the KD by equilibrium methods. Approximately 200 resonance units (RU) of human CD45, PD-1 or mouse PD-1 was captured on a SA-chip (GE Healthcare), including a reference channel of an unrelated protein. SPR runs were performed in HBS-P+ (GE Healthcare). All measurements were made with 2-fold serial dilutions using 45–60 s association (at 30 μl/min) followed by >240 s dissociation (30 μl/min) at 25°C. Regeneration was performed using HBS-P+, 2 M MgCl2 or 0.1 M Glycine, pH 3.1 for 15–20 s at 50 μl/min. Measurement of titrations at equilibrium were used to determine the KD using Biacore Analysis Software (GE Healthcare). All measurements were repeated twice.

Sequence	CD69 up-regulation ([1]; overnight stimulation, screen at 100 µM)	Kd (vTreg53 (Fat) TCR)	koff (vTreg53 (Fat) TCR; SPR)	kon (vTreg53 (Fat) TCR; SPR)	CD25 Emax, fold increase over Fat15 [1]	CD69 Emax, fold increase over Fat15 [1]	EC50 [1]	affinity (vTreg53 (Fat) TCR; SPR)
LMFKGPHAVQAVG [Fat7]	able to up-regulate CD69 expression	34.7 µM	fast kon and koff	fast kon				
TMYKNLRPWAATG [Fat2564]		0.347 µM	slowest koff		8.7 fold	~5 fold	8.9 µM	highest affinity
TMYKNPRPMAATG [Fat1562]			slowest koff		4.1 fold	~ 3 fold	14.3 µM	highest affinity
